{
  "source": "paper PMC7396128",
  "about": "(Nature medicine, 2019)",
  "key": {"[1]": {"tested_on": "HIV-1", "conditions": "500 nM, 12 hpi, MOI 70"}, "[2]": {"tested_on": "HIV-1YU2", "experiment": "antiviral efficacy in HIV-1YU2-infected humanized NOG mice", "assay_type": "in vivo"}, "[3]": {"tested_on": "MT-4 cells", "conditions": "read-out: mean 50% cytotoxicity concentration, CC50"}, "[4]": {"tested_on": "HIV-1IIIB", "assay_type": "cell-based", "conditions": "MT-4 cells"}, "[5]": {"tested_on": "HIV-1IIIB", "experiment": "ultrastructural analysis of HIV-1 virions by electron microscopy", "assay_type": "cell-based", "conditions": "500 nM"}},
  "data": [
    {"smiles": "Cc1cc(/C=C/C#N)cc(C)c1Nc1ccnc(Nc2ccc(C#N)cc2)n1", "note": "[RPV, rilpivirine]", "values": [
      {"measurement": "capsid levels", "setting": "[1]", "result": "100 % of control"},
      {"measurement": "vDNA", "setting": "[1]", "result": "14 % of control"},
      {"measurement": "treated animals with rapid emergence of drug resistance", "setting": "[2]; 160 mg/kg every 2 weeks", "result": 80, "unit": "%"},
      {"measurement": "animals returning to baseline viremia by week 10", "setting": "[2]; 160 mg/kg s.c. daily for 7 days then every two weeks", "result": "4/5"}
    ]},
    {"smiles": "Cc1[nH]c2ccccc2c1CC(=O)N[C@@H](Cc1ccccc1)C(=O)N(C)c1ccccc1", "note": "[PF74]", "values": [
      {"measurement": "CC50", "setting": "[3]", "result": "32.2 ± 9.3", "unit": "µM"},
      {"measurement": "selectivity index (CC50/EC50 ratio)", "setting": "[4]", "result": 26},
      {"measurement": "fold weaker antiviral potency than GS-CA1", "setting": "[4]; HIV-1IIIB", "result": "> 5,000 fold"},
      {"measurement": "EC50", "setting": "[4]; read-out: mean EC50, HIV-1IIIB, n = 43", "result": 1.24, "unit": "µM"}
    ]},
    {"smiles": "COC(=O)N[C@H](C(=O)N[C@@H](Cc1ccccc1)[C@@H](O)CN(Cc1ccc(-c2ccccn2)cc1)NC(=O)[C@@H](NC(=O)OC)C(C)(C)C)C(C)(C)C", "note": "[ATV, atazanavir]", "values": [
      {"measurement": "capsid morphology in released virions", "setting": "[5]", "result": "predominantly contained immature Gag/Gag-Pol lattices"}
    ]},
    {"smiles": "C[C@@H]1CCO[C@H]2Cn3cc(C(=O)NCc4ccc(F)cc4F)c(=O)c(O)c3C(=O)N12", "note": "[DTG, dolutegravir]", "values": [
      {"measurement": "effect on capsid and vDNA fluorescent signals", "setting": "[1]", "result": "did not alter either fluorescent signal"}
    ]}
  ]
}
